For 26 molecules, IC50 results are on record in patent publication US9714240B2 (PharmAkea, Inc., priority 2013, dated 2017).

This test has as its target T1, human autotaxin (Homo sapiens, UniProt Q13822).
T1 construct: Conditioned media is collected from confluent Hep3B cells and concentrated 20-fold; endogenous in cells; host or cells: Hep3B human hepatocellular carcinoma cells (concentrated conditioned medium)
The test can be described thus: Human Autotaxin Assay (choline release from LPC). Format: biochemical. Conditions: ATX in concentrated conditioned media from Hep3B cells, substrate LPC 14:0 100 uM, absorbance at 555 nm. As to the method: ATX activity is assayed in concentrated conditioned media from Hep3B human hepatocellular carcinoma cells by measuring the amount of choline released from the substrate, lysophosphatidylcholine (LPC) as it is cleaved to LPA. Conditioned media is collected from confluent Hep3B cells and concentrated 20-fold using Centriprep-30 filter devices (Millipore). To assay for autotaxin inhibition, 10-20 μL of the concentrated conditioned media is incubated with 2.5 μL of a test compound in DMSO and 72.5-82.5 μL lyso-PLD buffer (100 mM Tris pH 9, 500 mM NaCl, 5 mM MgCl2, 5 mM CaCl2, 0.05% Triton X-100 in the presence or absence of 0.2% fatty-acid-free human serum albumin) for 15 min at 37° C. After the 15 min incubation, 5 ul of 2 mM LPC (14:0; Avanti Polar Lipids Cat#855575C) diluted in lyso-PLD buffer is added for a final concentration of 100 uM and the incubation continues for 1.5-3 hours at 37° C. 100 μl of a color mix containing 4.5 mM 4-aminoantipyrine, 2.7 mM N-ethyl-N-(2-hydroxy-3-sulfopropyl)-m-toluidine, 21 units/ml horseradish peroxidase and 3 units/ml choline oxidase in 50 mM Tris, pH 8, 4.5 mM MgCl2 is added and the incubation continued for 15 minutes at room temperature before reading the absorbance at 555 nm.
Usually IC50 stands for the concentration needed to halve the response being measured. Read a low IC50 as higher potency. On to `N#C/C(=C\c1cn(Cc2ccc(F)cc2)c2ccccc12)c1ccc(C(=O)O)cc1` [Compound 1-1, 4-[(Z)-1-cyano-2-[1-[(4-fluorophenyl)methyl]indol-3-yl]vinyl]benzoic Acid], for which the IC50 was 500 to 10000 nM.

For the molecule `N#C/C(=C\c1cn(Cc2ccc(F)cc2)c2cccc(Cl)c12)c1ccc(C(=O)O)cc1` [Compound 1-2, 4-[(Z)-1-cyano-2-[4-chloro-1-[(4-fluorophenyl)methyl]indol-3-yl]vinyl]benzoic Acid], the IC50 fell in the range of 500 to 10000 nM.

`N#C/C(=C\c1cn(Cc2ccc(F)cc2)c2ccc(Cl)cc12)c1ccc(C(=O)O)cc1` [Compound 1-3, 4-[(Z)-2-[5-chloro-1-[(4-fluorophenyl)methyl]indol-3-yl]-1-cyano-vinyl]benzoic Acid] came in with an IC50 of more than 10000 nM.

Turning to `N#C/C(=C\c1cn(Cc2ccc(F)cc2)c2cc(Cl)ccc12)c1ccc(C(=O)O)cc1` [Compound 1-4, (Z)-4-(2-(6-chloro-1-(4-fluorobenzyl)-1H-indol-3-yl)-1-cyanovinyl)benzoic Acid], the half-maximal inhibitory concentration (IC50) was not above 500 nM.

Consider `N#C/C(=C\c1cn(Cc2ccc(F)cc2)c2c(Cl)cccc12)c1ccc(C(=O)O)cc1` [Compound 1-5, 4-[(Z)-2-[7-chloro-1-[(4-fluorophenyl)methyl]indol-3-yl]-1-cyano-vinyl]benzoic Acid], for which the IC50 was in the range of 500 to 10000 nM.

The molecule `N#C/C(=C\c1cn(Cc2ccc(F)cc2)c2ccc(F)cc12)c1ccc(C(=O)O)cc1` [Compound 1-6, 4-[(Z)-1-cyano-2-[5-fluoro-1-[(4-fluorophenyl)methyl]indol-3-yl]vinyl]benzoic Acid] had a 50% inhibitory concentration (IC50) of 500 to 10000 nM.

For the molecule `N#C/C(=C\c1cn(Cc2ccc(F)cc2)c2cc(F)ccc12)c1ccc(C(=O)O)cc1` [Compound 1-7, 4-[(Z)-1-cyano-2-[6-fluoro-1-[(4-fluorophenyl)methyl]indol-3-yl]vinyl]benzoic Acid], the IC50 is not above 500 nM.

`N#C/C(=C\c1cn(Cc2ccc(F)cc2)c2cc(Br)ccc12)c1ccc(C(=O)O)cc1` [Compound 1-8, 4-[(Z)-2-[6-bromo-1-[(4-fluorophenyl)methyl]indol-3-yl]-1-cyano-vinyl]benzoic Acid] gave a half-inhibitory concentration (IC50) of 500 to 10000 nM.

The molecule `N#C/C(=C\c1cn(Cc2ccc(F)cc2)c2cc(C(F)(F)F)ccc12)c1ccc(C(=O)O)cc1` [Compound 1-9, 4-[(Z)-1-cyano-2-[1-[(4-fluorophenyl)methyl]-6-(trifluoromethyl)indol-3-yl]vinyl]benzoic Acid] had an IC50 of 500 to 10000 nM.

Molecule `COc1ccc2c(/C=C(\C#N)c3ccc(C(=O)O)cc3)cn(Cc3ccc(F)cc3)c2c1` [Compound 1-10, 4-[(Z)-1-cyano-2-[1-[(4-fluorophenyl)methyl]-6-methoxy-indol-3-yl]vinyl]benzoic Acid] returned a concentration for half-maximal inhibition (IC50) not above 500 nM.

With `N#C/C(=C\c1cn(Cc2ccc(F)cc2)c2cc(F)cc(F)c12)c1ccc(C(=O)O)cc1` [Compound 1-11, 4-[(Z)-1-cyano-2-[4,6-difluoro-1-[(4-fluorophenyl)methyl]indol-3-yl]vinyl]benzoic Acid], the concentration for half-maximal inhibition (IC50) is not above 500 nM.

In turn, `CCCn1cc(-n2cc(/C=C(\C#N)c3ccc(C(=O)O)cc3)c3ccc(Cl)cc32)cn1` [Compound 1-12, 4-[(Z)-2-[6-chloro-1-(1-propylpyrazol-4-yl)indol-3-yl]-1-cyano-vinyl]benzoic Acid] yielded a concentration for half-maximal inhibition (IC50) of more than 10000 nM.

As for `N#C/C(=C\c1cn(Cc2ccccc2)c2cc(Cl)ccc12)c1ccc(C(=O)O)cc1` [Compound 1-13, 4-[(Z)-2-(1-benzyl-6-chloro-indol-3-yl)-1-cyano-vinyl]benzoic Acid], the IC50 was 500 to 10000 nM.

`N#C/C(=C\c1cn(Cc2ccncc2)c2cc(Cl)ccc12)c1ccc(C(=O)O)cc1` [Compound 1-14, 4-[(Z)-2-[6-chloro-1-(4-pyridylmethyl)indol-3-yl]-1-cyano-vinyl]benzoic Acid]: the half-inhibitory concentration (IC50) fell in the range of 500 to 10000 nM.

The molecule `N#C/C(=C\c1cn(Cc2cnc(C(F)(F)F)s2)c2cc(Cl)ccc12)c1ccc(C(=O)O)cc1` [Compound 1-15, 4-[(Z)-2-[6-chloro-1-[[2-(trifluoromethyl)thiazol-5-yl]methyl]indol-3-yl]-1-cyano-vinyl]benzoic Acid] displayed an IC50 not above 500 nM.

With `N#C/C(=C\c1cn(Cc2ccc(Cl)nc2)c2cc(Cl)ccc12)c1ccc(C(=O)O)cc1` [Compound 1-16, 4-[(Z)-2-[6-chloro-1-[(6-chloro-3-pyridyl)methyl]indol-3-yl]-1-cyano-vinyl]benzoic Acid], the IC50 was not above 500 nM.

The molecule `CCOc1ncc(Cn2cc(/C=C(\C#N)c3ccc(C(=O)O)cc3)c3ccc(Cl)cc32)s1` [Compound 1-17, 4-[(Z)-2-[6-chloro-1-[(2-ethoxythiazol-5-yl)methyl]indol-3-yl]-1-cyano-vinyl]benzoic Acid] showed an IC50 of 500 to 10000 nM.

As to `CCCc1noc(Cn2cc(/C=C(\C#N)c3ccc(C(=O)O)cc3)c3ccc(Cl)cc32)n1` [Compound 1-18, 4-[(Z)-2-[6-chloro-1-[(3-propyl-1,2,4-oxadiazol-5-yl)methyl]indol-3-yl]-1-cyano-vinyl]benzoic Acid], the IC50 fell in the range of 500 to 10000 nM.

Take `N#C/C(=C\c1cn(Cc2cc(Cl)cc(Cl)c2)c2cc(Cl)ccc12)c1ccc(C(=O)O)cc1` [Compound 1-19, 4-[(Z)-2-[6-chloro-1-[(3,5-dichlorophenyl)methyl]indol-3-yl]-1-cyano-vinyl]benzoic Acid]: the IC50 lay within 500 to 10000 nM.

Turning to `N#C/C(=C\c1cn(Cc2cc(C(F)(F)F)cc(C(F)(F)F)c2)c2cc(Cl)ccc12)c1ccc(C(=O)O)cc1` [Compound 1-20, 4-[(Z)-2-[1-[[3,5-bis(trifluoromethyl)phenyl]methyl]-6-chloro-indol-3-yl]-1-cyano-vinyl]benzoic Acid], the IC50 was more than 10000 nM.

`N#C/C(=C\c1cn(Cc2ccc(C(F)(F)F)cc2)c2cc(Cl)ccc12)c1ccc(C(=O)O)cc1` [Compound 1-21, 4-[(Z)-2-[6-chloro-1-[[4-(trifluoromethyl)phenyl]methyl]indol-3-yl]-1-cyano-vinyl]benzoic Acid]: the half-inhibitory concentration (IC50) was 500 to 10000 nM.

Turning to `N#C/C(=C\c1cn(CCc2ccc(F)cc2)c2cc(Cl)ccc12)c1ccc(C(=O)O)cc1` [Compound 1-22, 4-[(Z)-2-[6-chloro-1-[2-(4-fluorophenyl)ethyl]indol-3-yl]-1-cyano-vinyl]benzoic Acid], the IC50 was more than 10000 nM.

Molecule `N#C/C(=C\c1cn(CCCc2ccc(F)cc2)c2cc(Cl)ccc12)c1ccc(C(=O)O)cc1` [Compound 1-23, 4-[(Z)-2-[6-chloro-1-[3-(4-fluorophenyl)propyl]indol-3-yl]-1-cyano-vinyl]benzoic Acid] had a concentration for half-maximal inhibition (IC50) of more than 10000 nM.

Molecule `N#C/C(=C\c1cn(CCCc2ccccc2)c2cc(Cl)ccc12)c1ccc(C(=O)O)cc1` [Compound 1-24, 4-[(Z)-2-[6-chloro-1-(3-phenylpropyl)indol-3-yl]-1-cyano-vinyl]benzoic Acid] gave a half-maximal inhibitory concentration (IC50) of 500 to 10000 nM.

In the case of `Cn1cc(Cn2cc(/C=C(\C#N)c3ccc(C(=O)O)cc3)c3ccc(Cl)cc32)cn1` [Compound 1-25, 4-[(Z)-2-[6-chloro-1-[(1-methylpyrazol-4-yl)methyl]indol-3-yl]-1-cyano-vinyl]benzoic Acid], the IC50 was in the range of 500 to 10000 nM.

As for `COc1ccc(Cn2cc(/C=C(\C#N)c3ccc(C(=O)O)cc3)c3ccc(Cl)cc32)cn1` [Compound 1-26, 4-[(Z)-2-[6-chloro-1-[(6-methoxy-3-pyridyl)methyl]indol-3-yl]-1-cyano-vinyl]benzoic Acid], the IC50 is not above 500 nM.
